The nature of one data set: clinical. To be noted: human, in vivo. On the procedure: This single center trial was approved by the Cleveland Clinic Institutional Review Board (clinicaltrials.gov identifier NCT04731363). Following subject consent (nonsmokers without CVD, hypertension, or diabetes), blood was drawn after overnight fast and 30 min following consumption of water containing 30 g of […] glucose (n=10, 30.1±11 years of age, 40% male), or erythritol (n=10, 30.5±8 years of age, 50% male), a quantity commonly found in erythritol-sweetened foods and the daily intake of some subjects based on 2013-2014 National Health and Nutrition Examination Survey (NHANES) data and FDA filings.(4,5).
Following erythritol consumption, postprandial circulating erythritol levels (assessed using stable-isotope-dilution liquid-chromatography tandem mass spectrometry (LC/MS/MS)3) were >1000-fold increased compared to baseline levels (median[inter quartile range], 6480[5930-7300]μM versus 3.75[3.35-3.87]μM, P<0.0001). In contrast, circulating erythritol levels remained similar before versus after glucose consumption (3.0[2.6-4.0]μM versus 2.9[2.7-3.8]μM, P=0.87; glucose levels before versus after 86.5(81.8-93.0) versus 127.0(122.3-132.3), P=0.002). […] In contrast, glucose consumption had no effect on platelet aggregation.

Data set [1] in a line: Erythritol intervention study (COSETTE): postprandial plasma erythritol levels. It counts as in vivo, human. To be noted: for hours after ingestion of 30 g. As to the method: In a fourth study, the first phase of the Erythritol Intervention Study (COSETTE, clinicaltrials.gov number: NCT04731363), prospectively recruited healthy volunteers ingested a standard-size artificially sweetened beverage (300 mL) containing 30 g of erythritol with instructions to consume the drink within 2 minutes, and blood samples were collected at scheduled post-prandial time points for crythritol measurement. For each participant in the erythritol intervention study (n=8), baseline blood samples were first obtained after overnight (≥8 hours) fasting. […] Therefore, participants were given 30 g erythritol dissolved in 300 mL water. Serial venous blood sampling was performed up to 7d after baseline. […]
Stable-isotope-dilution LC/MS/MS was used for quantification of erythritol, threitol, and 1,5-AHG in human and mouse plasma. […] Limit of detection (LOD) and limit of quantification (LOQ) were as follow: threitol:0.048 and 0.160 μM; erythritol: 0.026 and 0.089 μM; 1,5-AHG: […]; respectively. Three quality control samples were run with each batch of samples and inter-batch variations expressed as coefficient of variation (CV) were less than 7% for all analytes monitored. Data were collected and analyzed by LabSolution 5.91 software (Shimadzu).

Each structure is given as a SMILES string. Some results are limits rather than exact numbers.

Turning to `OC[C@@H](O)[C@@H](O)CO` [erythritol], in “clinical” (both sexes), the concentration at 30 min amounted to 6480 µM. In addition, in the data set “clinical” (both), the “baseline circulating erythritol levels, median[inter quartile range]” value is 3.75[3.35-3.87] μM and the circulating erythritol levels is 3.0[2.6-4.0] μM. Moreover, in the data set “clinical” (both, 30 min), the circulating erythritol levels was 2.9[2.7-3.8] μM and the “increase of postprandial circulating erythritol vs baseline” value was more than 1000 fold. Besides, in data set [1], the “elevation of plasma erythritol over baseline” value is listed as 1000 fold.

Values taken from patent US20260219274A1, “POLYOL SWEETNERS AND CARDIOVASCULAR AND THROMBOTIC EVENT RISK” (THE CLEVELAND CLINIC FOUNDATION, priority 2023, published 2026).
